{"source": "patent US9540389B2", "about": "“Antimicrobial potentiators” (priority 2013, dated 2017)", "key": {"AcrAB-TolC efflux pump": {"target": "AcrAB-TolC efflux pump (Escherichia coli, UniProt P31224)", "sequence (P31224 whole entry)": "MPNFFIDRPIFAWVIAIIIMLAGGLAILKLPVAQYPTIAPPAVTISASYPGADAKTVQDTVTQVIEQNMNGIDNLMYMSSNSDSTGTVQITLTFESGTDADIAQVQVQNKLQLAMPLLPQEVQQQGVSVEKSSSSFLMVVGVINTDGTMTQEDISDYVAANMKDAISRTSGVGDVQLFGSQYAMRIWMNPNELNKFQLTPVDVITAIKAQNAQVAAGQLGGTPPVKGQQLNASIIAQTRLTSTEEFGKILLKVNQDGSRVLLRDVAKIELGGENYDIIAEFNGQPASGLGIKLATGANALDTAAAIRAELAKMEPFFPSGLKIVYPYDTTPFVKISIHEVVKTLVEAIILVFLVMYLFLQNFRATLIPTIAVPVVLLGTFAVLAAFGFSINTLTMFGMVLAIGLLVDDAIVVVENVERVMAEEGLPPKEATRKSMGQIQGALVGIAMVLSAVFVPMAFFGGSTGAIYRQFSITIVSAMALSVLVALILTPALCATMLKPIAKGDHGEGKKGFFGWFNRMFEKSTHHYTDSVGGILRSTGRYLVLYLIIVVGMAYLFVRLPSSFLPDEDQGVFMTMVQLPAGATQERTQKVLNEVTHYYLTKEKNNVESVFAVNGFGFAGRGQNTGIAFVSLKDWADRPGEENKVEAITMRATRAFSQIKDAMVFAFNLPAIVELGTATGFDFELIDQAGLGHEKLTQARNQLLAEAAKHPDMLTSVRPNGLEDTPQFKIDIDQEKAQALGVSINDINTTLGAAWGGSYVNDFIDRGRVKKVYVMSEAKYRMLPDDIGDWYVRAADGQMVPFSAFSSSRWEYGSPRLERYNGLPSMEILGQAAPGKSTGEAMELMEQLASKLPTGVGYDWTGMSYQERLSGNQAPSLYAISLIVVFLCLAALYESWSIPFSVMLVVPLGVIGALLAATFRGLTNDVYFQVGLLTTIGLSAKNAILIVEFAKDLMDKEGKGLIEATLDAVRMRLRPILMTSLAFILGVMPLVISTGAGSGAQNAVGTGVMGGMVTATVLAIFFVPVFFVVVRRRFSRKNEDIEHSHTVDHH", "sequence (P0AE06 25-397, further chain)": "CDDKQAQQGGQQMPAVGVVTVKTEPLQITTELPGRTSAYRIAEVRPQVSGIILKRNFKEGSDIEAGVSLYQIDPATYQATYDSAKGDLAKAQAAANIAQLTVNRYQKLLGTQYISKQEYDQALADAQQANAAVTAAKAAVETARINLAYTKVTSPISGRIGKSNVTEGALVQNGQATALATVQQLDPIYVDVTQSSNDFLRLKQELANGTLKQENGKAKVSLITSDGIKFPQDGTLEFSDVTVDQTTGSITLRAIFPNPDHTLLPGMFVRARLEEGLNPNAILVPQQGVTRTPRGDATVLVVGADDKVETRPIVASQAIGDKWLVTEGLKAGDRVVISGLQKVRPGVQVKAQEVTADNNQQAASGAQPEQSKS", "sequence (P02930 23-493, further chain)": "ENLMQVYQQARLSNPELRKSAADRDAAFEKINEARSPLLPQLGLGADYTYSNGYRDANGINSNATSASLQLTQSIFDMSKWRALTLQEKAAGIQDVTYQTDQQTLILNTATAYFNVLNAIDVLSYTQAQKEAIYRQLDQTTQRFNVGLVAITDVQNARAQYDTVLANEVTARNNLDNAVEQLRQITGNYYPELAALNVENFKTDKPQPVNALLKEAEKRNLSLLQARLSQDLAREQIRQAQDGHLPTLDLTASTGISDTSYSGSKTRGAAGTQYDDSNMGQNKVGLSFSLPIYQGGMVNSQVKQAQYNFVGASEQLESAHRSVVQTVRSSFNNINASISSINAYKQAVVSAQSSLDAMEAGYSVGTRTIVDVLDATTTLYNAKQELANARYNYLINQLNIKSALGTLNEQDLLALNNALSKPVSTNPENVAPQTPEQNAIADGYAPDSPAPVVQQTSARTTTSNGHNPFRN", "test": "H33342 accumulation assay", "format": "cell-based, Escherichia coli 285", "set-up": "endogenous in cells; host or cells: E. coli strains 285 and 287 (ciprofloxacin-resistant mutants of AB1157)", "settings": "hyper-efflux strain 285"}, "Escherichia coli 331": {"test_system": "Escherichia coli 331", "test": "MIC assay (microbroth dilution) ± 25 μM EPI", "format": "cell-based", "settings": "E. coli 331", "description": "(§1) • Strains and Reagents. The following strains were obtained from the Keio collection (Baba, et al.: Construction of Escherichia coli K-12 in-frame, single-gene knockout mutants: the Keio collection. In Mol Syst Biol, vol. 2, pp. 2006 0008, (2006)): JW0451 (ΔacrB::kan), JW5503 (ΔtolC::kan), JW3234 (ΔacrF::kan), JW2661 (ΔemrB::kan), JW0863 (ΔmacB::kan). The deletion mutations in each of these strains were transferred to AB1157 using P1 phage transduction (see Table 1). The construction of the E. coli cell-based reporter strain (SOS-XXX) that was used for high throughput screening is described in detail in the supplementary information. […] Irgasan was a generous gift from Ciba Speciality Chemicals, Inc. (High Point, N.C.). Hoechst 33342 (H33342) was purchased from Molecular Probes (Eugene, Oreg.). […] Luria Broth (Miller) and agar were purchased as prepared dehydrated media from Becton Dickenson (Franklin Lakes, N.J.). The compound libraries used in high-throughput screens were purchased from Chembridge (San Diego, Calif.), ChemDiv (San Diego, Calif.), and TimTec (Newark, Del.). MBX2319 was synthesized by Microbiotix, Inc. • Antibacterial Activity Assays. The minimal inhibitory concentration (MIC) of antibacterial agents and biocides were determined using the microbroth dilution method essentially as described in the CLSI protocol M7-A7 (CLSI: Method for dilution antimicrobial susceptibility testing for bacteria that grow aerobically; Approved standard-document M7-A7. In Clinical and Laboratory Standards Institute document M7-A7, Clinical and Laboratory Standards Institute, Wayne, Pa., (2006)), with the following exceptions. LB media was used instead of MHB. […] The final concentration of DMSO in each assay was 2%. […] MIC assays were performed in triplicate and the geometric mean was calculated. Checkerboard MIC assays using an EPI and an antibacterial agent were performed essentially as described (Pillai, et al.: Antimicrobial Combinations. In Antibiotics in Laboratory Medicine, ed. by V. Lorian, pp. 365-440, Lippincott Williams & Wilkins, Philadelphia, Pa., (2005)), with the same modifications used for the MIC assays described above. • Time-Kill Assays. Killing curve assays were performed essentially as described (Pillai, et al.: Antimicrobial Combinations. In Antibiotics in Laboratory Medicine, ed. by V. Lorian, pp. 365-440, Lippincott Williams & Wilkins, Philadelphia, Pa., (2005)). Exponential bacterial cultures grown in LB were diluted to a cell density of ˜1×10^7 in LB followed by addition of CIP and/or an EPI. Viability was monitored over 2-4 hours by making serial dilutions in saline and spotting 5 μl of each dilution onto the surface of an LB agar plate in triplicate. Colonies were counted after the plates were incubated at 37° C. for 16-18 hr, colony forming units (CFU) per ml were calculated, and the average and standard deviation for the three replicates was determined. For treatments that decreased CFU/ml below the limit of detection for the spot plating method, the 100 μl samples were diluted into 5 ml LB top agar, were poured onto LB agar plates, and incubated for 18 hr at 37° C. To calculate the fraction of the control for each sample, the average CFU/ml values for treated samples were divided by those from the same sample at 0 h (time=0). Each experiment was repeated at least three times, and a representative experiment is shown. • H33342 Accumulation Assay. The rate of accumulation of the fluorescent dye Hoechst 33342 (H33342), which is a substrate of a wide variety of bacterial efflux pumps (van den Berg van Saparoea, et al., Biochemistry, vol. 44, pp. 16931-16938, (2005)), can be used to estimate the activity of the major efflux pumps in E. coli and many other bacterial species. The H33342 accumulation assay was used to evaluate the effect of EPIs on the activity of the AcrAB-TolC efflux pump in several bacterial species essentially as described (Coldham, et al., J Antimicrob Chemother, vol. 65, pp. 1655-1663, (2010)). […]"}, "Escherichia coli AB1157 [1]": {"test_system": "Escherichia coli AB1157", "test": "MIC assay (microbroth dilution) ± 25 μM EPI", "format": "cell-based", "settings": "Escherichia coli, AB1157, read-out: MICs (μg/ml) ± EPIs: None", "description": "as §1"}, "[2]": {"test_system": "Shigella flexneri ATCC 12022", "test": "MIC assay (microbroth dilution) ± 25 μM EPI", "format": "cell-based", "description": "as §1"}, "[3]": {"test_system": "Klebsiella pneumoniae ATCC 700603", "test": "MIC assay (microbroth dilution) ± 25 μM EPI", "format": "cell-based", "description": "as §1"}, "[4]": {"test_system": "Enterobacter aerogenes ATCC 13048", "test": "MIC assay (microbroth dilution) ± 25 μM EPI", "format": "cell-based", "description": "as §1"}, "[5]": {"test_system": "Escherichia coli ATCC 25922", "test": "MIC assay (microbroth dilution) ± 25 μM EPI", "format": "cell-based", "description": "as §1"}, "[6]": {"test_system": "Salmonella enterica ATCC 14028", "test": "MIC assay (microbroth dilution) ± 25 μM EPI", "format": "cell-based", "description": "as §1"}, "[7]": {"test_system": "Escherichia coli AB1157 ΔacrB", "test": "MIC assay (microbroth dilution)", "format": "cell-based", "description": "as §1"}, "Escherichia coli AB1157 [8]": {"test_system": "Escherichia coli AB1157", "test": "microbe, parasite or virus in culture"}, "[9]": {"settings": "MIC no cmpd/MIC + 25 μM MBX2319"}}}
{"smiles": "CC1(C)Cc2c(C#N)c(SCCc3ccccc3)nc(N3CCOCC3)c2CO1", "note": "[MBX2319]", "values": [{"measurement": "H33342 accumulation", "setting": "AcrAB-TolC efflux pump", "value": "increased H33342 accumulation"}]}
{"smiles": "CCN1CCN(C(=O)N[C@@H](C(=O)N[C@@H]2C(=O)N3[C@@H]2SC(C)(C)[C@@H]3C(=O)O)c2ccccc2)C(=O)C1=O", "note": "[Piperacillin, piperacillin]", "values": [{"measurement": "MIC (μg/ml) ± EPI: MBX2319", "setting": "Escherichia coli 331; + 25 μM MBX2319", "value": 0.707, "unit": "µg/mL"}, {"measurement": "MIC (μg/ml) ± EPI: PAβN", "setting": "Escherichia coli 331; + 25 μM PAβN", "value": 4, "unit": "µg/mL"}, {"measurement": "MIC Ratio MBX2319", "setting": "Escherichia coli 331; [9]", "value": 5.6}, {"measurement": "MIC Ratio PAβN", "setting": "Escherichia coli 331; MIC no cmpd/MIC + 25 μM PAβN", "value": 1}, {"measurement": "MIC", "setting": "Escherichia coli 331; Escherichia coli, no EPI, read-out: MIC (μg/ml) ± EPI: None", "value": 4, "unit": "µg/mL"}, {"measurement": "MIC", "setting": "Escherichia coli AB1157 [1]", "value": 4, "unit": "µg/mL"}, {"measurement": "MIC (μg/ml) ± EPI: MBX2319", "setting": "[2]; Shigella flexneri ATCC 12022, + 25 μM MBX2319", "value": 0.25, "unit": "µg/mL"}, {"measurement": "MIC (μg/ml) ± EPI: PAβN", "setting": "[2]; Shigella flexneri ATCC 12022, + 25 μM PAβN", "value": 1, "unit": "µg/mL"}, {"measurement": "MIC Ratio MBX2319", "setting": "[2]; Shigella flexneri ATCC 12022, MIC no cmpd/MIC + 25 μM MBX2319", "value": 4}, {"measurement": "MIC Ratio PAβN", "setting": "[2]; Shigella flexneri ATCC 12022, MIC no cmpd/MIC + 25 μM PAβN", "value": 1}, {"measurement": "MIC", "setting": "[2]; Shigella flexneri, ATCC12022, read-out: MIC (μg/ml) ± EPI: None", "value": 1, "unit": "µg/mL"}, {"measurement": "MIC (μg/ml) ± EPI: MBX2319", "setting": "[3]; + 25 μM MBX2319", "value": 113, "unit": "µg/mL"}, {"measurement": "MIC (μg/ml) ± EPI: PAβN", "setting": "[3]; + 25 μM PAβN", "value": 113, "unit": "µg/mL"}, {"measurement": "MIC", "setting": "[3]; ATCC700603, no EPI, read-out: MIC (μg/ml) ± EPI: None", "value": 113, "unit": "µg/mL"}, {"measurement": "MIC Ratio MBX2319", "setting": "[3]; [9]", "value": 1}, {"measurement": "MIC Ratio PAβN", "setting": "[3]; MIC no cmpd/MIC + 25 μM PAβN", "value": 1}, {"measurement": "MIC (μg/ml) ± EPI: MBX2319", "setting": "[4]; + 25 μM MBX2319", "value": 1.4, "unit": "µg/mL"}, {"measurement": "MIC (μg/ml) ± EPI: PAβN", "setting": "[4]; + 25 μM PAβN", "value": 16, "unit": "µg/mL"}, {"measurement": "MIC", "setting": "[4]; Klebsiella aerogenes, ATCC13048, no EPI, read-out: MIC (μg/ml) ± EPI: None", "value": 4, "unit": "µg/mL"}, {"measurement": "MIC Ratio MBX2319", "setting": "[4]; [9]", "value": 2.8}, {"measurement": "MIC Ratio PAβN", "setting": "[4]; MIC no cmpd/MIC + 25 μM PAβN", "value": 0.2}, {"measurement": "MIC (μg/ml) ± EPI: MBX2319", "setting": "[5]; E. coli ATCC 25922, + 25 μM MBX2319", "value": 1.68, "unit": "µg/mL"}, {"measurement": "MIC (μg/ml) ± EPI: PAβN", "setting": "[5]; E. coli ATCC 25922, + 25 μM PAβN", "value": 4, "unit": "µg/mL"}, {"measurement": "MIC Ratio MBX2319", "setting": "[5]; E. coli ATCC 25922, MIC no cmpd/MIC + 25 μM MBX2319", "value": 1.7}, {"measurement": "MIC Ratio PAβN", "setting": "[5]; E. coli ATCC 25922, MIC no cmpd/MIC + 25 μM PAβN", "value": 0.7}, {"measurement": "MIC", "setting": "[5]; Escherichia coli, ATCC25922, read-out: MIC (μg/ml) ± EPI: None", "value": 2.83, "unit": "µg/mL"}, {"measurement": "MIC (μg/ml) ± EPI: MBX2319", "setting": "[6]; + 25 μM MBX2319", "value": 0.5, "unit": "µg/mL"}, {"measurement": "MIC (μg/ml) ± EPI: PAβN", "setting": "[6]; + 25 μM PAβN", "value": 4, "unit": "µg/mL"}, {"measurement": "MIC", "setting": "[6]; ATCC14028, no EPI, read-out: MIC (μg/ml) ± EPI: None", "value": 2.4, "unit": "µg/mL"}, {"measurement": "MIC Ratio MBX2319", "setting": "[6]; [9]", "value": 4.8}, {"measurement": "MIC Ratio PAβN", "setting": "[6]; MIC no cmpd/MIC + 25 μM PAβN", "value": 0.6}, {"measurement": "MIC", "setting": "[7]; Escherichia coli, read-out: MICs (μg/ml) ΔacrB None", "value": 0.25, "unit": "µg/mL"}, {"measurement": "MIC Ratio ΔacrB", "setting": "[7]; MIC WT/MIC ΔacrB", "value": 16}, {"measurement": "MIC", "setting": "Escherichia coli AB1157 [8]", "value": 4, "unit": "µg/mL"}]}
